Reference: US12433858B2, “Substituted cycloalkanes for managing nephrogenic diabetes insipidus” (NephroDI Therapeutics, Inc., priority 2017, dated 2025)
“Also recorded” adds a separate entry of the source.

Key:
[1] = system: Tolvaptan induced NDI rats; assay: Tolvaptan-induced NDI rat model, urine concentration; type: in vivo
Description: Rats were given tolvaptan to induce NDI. Tolvaptan binds to and blocks the vasopressin type 2 receptor (V2R) and renders the animals insensitive to vasopressin-induced antidiuresis. The efficacy of three compounds of Formula I were evaluated. Each rat was gavage fed with 10 mg/kg/day of tolvaptan in the carrier solution (1% hydroxypropylmethyl cellulose in water) for 3 days to prepare the NDI model. The drugs were added to the gavage feeding solution and delivered daily for 4 days (NDI-5001, 200 mg/kg/day; NDI-5033 or NDI-5037, 50 mg/kg/day). Control rats were sham gavage fed.
(§1) NDI-5033 was tested to determine an initial time course and sustainability of the anti-diuretic response. Rats were given tolvaptan to initiate NDI. They were then fed 100 mg/kg/day with NDI-5033 for 3 days (FIG. 2A). […] To ensure that the observed efficacy is not compromised by potential binding of NDI-5033 to V2R, NDI-5033 was given to mice in which the V2R was genetically knocked out yielding a genetic model of NDI (FIG. 2B). Control mice received no drug. NDI-5033 was given by injection to the mice and 24-hour urine collected and assessed for urine osmolality. NDI-5033 produced a 50% improvement in urine concentration.
(§2) Tolvaptan induced NDI rats were prepared and fed with doses of NDI-5033 from 0 to 100 mg/kg/day in a series of experiments. […] To confirm the effectiveness of the 25 mg/kg/day dose, NDI-5033 was given to V2R knock-out NDI mice and 24-hour urines were assessed for urine osmolality (FIG. 3B). The osmolality was increased in NDI mice after treatment with 25 mg/kg/day of NDI-5033.
(§3) An experiment was designed to approximate hypoglycemia in the tolvaptan-treated rat NDI model to look for hypoglycemia. A timeline for the experiment is illustrated in FIG. 4A. The rats were given tolvaptan beginning Day negative 3. On Day zero half of the rats started to receive 25 mg/kg/day of NDI-5033. After observing an improvement in the urine concentration, the animals were exercised daily for 5 days. Food was removed from the animals and NDI-5033 was given, then 4 hours later rats were subjected to 30 minutes of treadmill running. Blood glucose measurements were taken before and after the bout of exercise. Food was restored. The process was repeated daily for 5 days. The average urine osmolality and urine volumes in the NDI rats not receiving NDI-5033 (control) or receiving 25 mg/kg/day NDI-5033 is shown in FIG. 4B. Urine osmolality was increased (p<0.05) and urine volume decreased (p<0.07) upon drug treatment. […] For each day, patterned bars are from rats not receiving NDI-5033. The leftmost bar (diagonal) is before and to the right is after exercise. The next two bars show blood glucose values for rats receiving NDI-5033. Solid black is before and solid white is after exercise.

[2] = Hypoglycemia evaluation on chronic dosing in exercised tolvaptan-treated NDI rats (blood glucose); type: in vivo, rat; details: 25 mg/kg/day, daily for 5 days
Description: as §3

V2R knock-out NDI mice = assay: V2R knock-out mouse genetic model of NDI, 24-hour urine osmolality; type: in vivo
Description: as §1, §2

[3] = food removed, 30 minutes treadmill 4 hours after dose
[4] = 100 mg/kg/day for 3 days, tolvaptan NDI rats

blood glucose before versus after exercise [2, 3] | blood glucose relative to normal range for rats [2, 3] | Structure (SMILES) | urine osmolality as percent of the normal animal ([1]; tolvaptan 10 mg/kg/day by gavage for 3 days, NDI induction) | hypoglycemia ([2]; exercised NDI rats) | average urine osmolality (in words) ([1]; 25 mg/kg/day versus control NDI rats, exercise study, p<0.05, FIG. 4B) | average urine volume (in words) ([1]; 25 mg/kg/day versus control NDI rats, exercise study, p<0.07, FIG. 4B) | duration for which anti-diuretic response is sustained [1, 4] | time to anti-diuretic effect after initial treatment [1, 4] | urine concentrating ability (urine osmolality) as percent of untreated, fully concentrating rats (basal, set to 100%) ([1]; NDI-5033 50 mg/kg/day by gavage daily for 4 days, after tolvaptan 10 mg/kg/day for 3 days) | dose showing statistically significant improvements in urine concentrations ([1]; dose response 0 to 100 mg/kg/day, FIG. 3A) | urine osmolality (in words) ([1]; dosed with NDI inducing agent tolvaptan, FIG. 2A, 100 mg/kg/day for 3 days) | efficacy / urine concentrating ability (in words) ([1]; gavage daily for 4 days, NDI-5001 200 mg/kg/day, NDI-5033 or NDI-5037 50 mg/kg/day, tolvaptan NDI rats) | urine osmolality (in words) (V2R knock-out NDI mice; 25 mg/kg/day, 24-hour urines, FIG. 3B) | improvement in urine concentration (V2R knock-out NDI mice; given by injection, 24-hour urine, versus control mice receiving no drug)
– | – | Cc1ccccc1C(=O)Nc1ccc(C(=O)N2CCCC(O)c3cc(Cl)ccc32)c(C)c1 (centres unmarked) [tolvaptan, reference compound] | 10 % of the normal animal | – | – | – | – | – | – | – | – | – | – | –
no statistical difference | within the normal range | NC(=O)C1(CCCCCCCCCCCCC2(C(N)=O)CC2)CC1 [NDI-5033, 1,1′-(dodecane-1,12-diyl)bis(cyclopropane-1-carboxamide)] | – | no evidence of hypoglycemia; also recorded: do not experience hypoglycemia | increased | decreased | 3 days | ≤ 24 h | 75 % of normal | ≥ 10 mg/kg/day | increases urine osmolality | improve urine concentrating ability | increased | 50%
